Assay results as given in the SangsterLogP compilation.

Cc1cc(C)c2c(c1)NC(=O)C2OC(=O)Cc1ccccc1 (stereo not given)
logP: 3.22

O=C(O)C=C1c2ccccc2N(c2ccccc2)C(=O)C1(O)Cc1ccccc1 (stereo not given)
logP: 2.57

CCCCC1(O)C(=O)N(C)c2ccccc2C1=CC(=O)O (stereo not given)
logP: 2.23

CCOC(=O)C=C1c2ccccc2NC(=O)C1(O)Cc1ccccc1 (stereo not given)
logP: 4.16

CCOC(=O)C=C1c2ccccc2N(C)C(=O)C1(O)Cc1ccccc1 (stereo not given)
logP: 4.75

O=C(O)C=C1c2ccccc2NC(=O)C1(O)Cc1ccccc1 (stereo not given)
logP: 2.27

CCCCC1(O)C(=O)Nc2ccccc2C1=CC(=O)O (stereo not given)
logP: 2.18

CN1C(=O)C(O)(Cc2ccccc2)C(=CC(=O)O)c2ccccc21 (stereo not given)
logP: 2.31

CCCCC(=O)OC1C(=O)Nc2c(C)ccc(C)c21 (stereo not given)
logP: 3.2

CCCCC1(O)C(=O)Nc2ccccc2C1=CC(=O)OCC (stereo not given)
logP: 4.47

O=C(O)C=C1c2ccccc2N(c2ccccc2)C(=O)C1(O)c1ccccc1 (stereo not given)
logP: 2.83

CCCCC1(O)C(=O)N(c2ccccc2)c2ccccc2C1=CC(=O)O (stereo not given)
logP: 2.44

CCCCC1(O)C(=O)N(C)c2ccccc2C1=CC(=O)OCC (stereo not given)
logP: 4.21

Cc1ccc(Cl)c2c1NC(=O)C2OC(=O)Cc1ccccc1 (stereo not given)
logP: 3.19

CCCCC(=O)OC1C(=O)Nc2cc(C)cc(C)c21 (stereo not given)
logP: 3.19
